Experimental data taken from US20230312550A1, “N-(2-(4-CYANOTHIAZOLIDIN-3-YL)-2-OXOETHYL)-QUINOLINE-4-CARBOXAMIDES” (AstraZeneca AB, priority 2020, published 2023).
Values after ≈ are worked out from the molar mass of the structure shown.

Tests used:
[1] = Metabolic stability in human hepatocytes (hHep); type: in vitro ADME; conditions: n = 1 or geometric mean of n = 2
hFAP (M39-A757) = hFAP (M39-A757) (Homo sapiens (Human), UniProt Q12884); experiment: hFAP binding assay (surface plasmon resonance); conditions: SPR, 20° C.; for hFAP Binding assay k(off) / hFAP Binding assay k(on): single cycle kinetics; for Kd: n = 1 or geometric mean n = 2-4
Caco-2 cell permeability = conditions: human
Method: Caco-2 cell permeability was measured as described in Mol Pharm 2017, 14, 1601.

[2] = Metabolic stability in rat hepatocytes (rHep); conditions: n = 1 or geometric mean of n = 2-3
[3] = target: Prolyl endopeptidase, Prolyl Oligopeptidase (hPREP) (Homo sapiens (Human), UniProt P48147); experiment: hPrep inhibition assay; type: biochemical; conditions: hPREP 0.6 nM, Z-Gly-Pro-amino-methylcoumarin 50 μM; read-out: PREP IC50
Method in brief: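 Recombinant human PREP at 0.6 nM final with Z-Gly-Pro-AMC substrate at 50 μM final in Tris-HCl pH 7.5, NaCl, Triton X-100, glutathione; 15 min rt preincubation then 20 min rt reaction in dark. AMC fluorescence (ex 340/em 460 nm); IC50 from one-site dose-response fit of % inhibition.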

[4] = Metabolic stability in human liver microsomes (HLM); conditions: human
Method: Metabolic stability in HLM was measured as described in J Comput Aided Mol Des 2015, 29, 795.

[5] = target: human Fibroblast activation protein alpha (hFAP) (Homo sapiens (Human), UniProt Q12884); experiment: hFAP inhibition assay (tight binders); type: biochemical; conditions: Ala-Pro-AMC 20 μM, n = 1 or geometric mean n = 2-6; further: hFAP 2.4 pM
Method: The plates were read on a PHERAstar® reader with excitation 340 nm and emission 460 nm. Data were analyzed in Genedata Screener®. IC50 values were determined by plotting % inhibition versus log compound concentration and using a one site dose response model.

Kinetic solubility = conditions: kinetic from dmso stock
Method: Kinetic solubility was measured as described in Comput Aided Mol Des 2015, 29, 795.

FAP [6] = target: FAP (Mus musculus (Mouse), UniProt P97321); experiment: FAP plasma inhibition assay, mouse plasma; type: biochemical; conditions: mouse plasma diluted 1:67, Ala-Pro-AMC 75 μM
Method: This assay was adapted from the method described in Example 237 for detection of FAP target engagement enzyme activity in plasma. Plasma (anticoagulant K2EDTA) was used as the enzyme source: Human plasma (Pooled from AZ Biobank), Mouse plasma (AZ AST Biobank), and Cynomolgus plasma (BioIVT, #NHP00PLK2FNN, lot CYN222895). 384-Well black fluotrack PS plates (Greiner 781076) were used. 20 μL diluted plasma (Cynomolgus and Human plasma dilution 1:40, Mouse plasma dilution 1:67) in buffer (PBS, 0.1% BSA) was added to 0.6 μL compounds (in DMSO). Compounds were tested using 10 CR, 3 fold dilution series from 500 nM FAC. Two replicates for each assay point were run on the same plate. A fluorescence blank read was taken before substrate addition. […] Plates were incubated for 40 min at rt in the dark. […] IC50 values were determined by plotting % inhibition versus log compound concentration.

FAP [7] = target: FAP (Homo sapiens (Human), UniProt Q12884); experiment: hFAP inhibition assay; type: biochemical; conditions: hFAP […], Ala-Pro-AMC 20 μM; n = 1 or geometric mean n = 2-3
Method in brief: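 Human FAP (0.48 nM) in 100 mM Tris HCl, 100 mM NaCl, 0.05% Chaps, pH 7.4 was preincubated 15 min at rt in the dark with compounds (10-point, 3-fold series from 50 μM). Substrate was added from a 40 μM solution, then 30 min at rt. Fluorescence read at ex 340/em 460 nm; IC50 from one-site dose-response fit of % inhibition.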

[8] = HLM CLint, n = 1 or average of n = 2-3
[9] = Solubility, kinetic solubility, n = 1 or average of n = 2-3

Prolyl endopeptidase, Prolyl Oligopeptidase (hPREP), sequence (P48147 whole entry): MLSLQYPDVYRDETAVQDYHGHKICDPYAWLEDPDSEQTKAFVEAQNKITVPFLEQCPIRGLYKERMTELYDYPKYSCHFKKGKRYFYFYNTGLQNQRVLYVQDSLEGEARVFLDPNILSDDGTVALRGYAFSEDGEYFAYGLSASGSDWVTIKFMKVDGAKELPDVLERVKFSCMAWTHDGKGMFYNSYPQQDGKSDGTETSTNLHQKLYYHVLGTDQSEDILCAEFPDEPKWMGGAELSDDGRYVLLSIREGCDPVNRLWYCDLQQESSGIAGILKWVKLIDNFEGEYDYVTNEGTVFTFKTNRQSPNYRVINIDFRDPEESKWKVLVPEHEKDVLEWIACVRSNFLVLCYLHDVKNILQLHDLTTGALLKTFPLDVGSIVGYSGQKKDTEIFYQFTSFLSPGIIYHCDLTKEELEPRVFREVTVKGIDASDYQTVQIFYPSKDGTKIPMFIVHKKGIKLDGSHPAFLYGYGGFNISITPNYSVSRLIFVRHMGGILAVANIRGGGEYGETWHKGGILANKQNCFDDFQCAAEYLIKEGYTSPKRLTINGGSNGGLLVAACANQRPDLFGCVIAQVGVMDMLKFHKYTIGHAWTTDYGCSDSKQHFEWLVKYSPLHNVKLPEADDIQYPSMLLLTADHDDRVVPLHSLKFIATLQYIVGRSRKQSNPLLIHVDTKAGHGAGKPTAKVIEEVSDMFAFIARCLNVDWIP
hFAP (M39-A757), sequence (Q12884 39-757): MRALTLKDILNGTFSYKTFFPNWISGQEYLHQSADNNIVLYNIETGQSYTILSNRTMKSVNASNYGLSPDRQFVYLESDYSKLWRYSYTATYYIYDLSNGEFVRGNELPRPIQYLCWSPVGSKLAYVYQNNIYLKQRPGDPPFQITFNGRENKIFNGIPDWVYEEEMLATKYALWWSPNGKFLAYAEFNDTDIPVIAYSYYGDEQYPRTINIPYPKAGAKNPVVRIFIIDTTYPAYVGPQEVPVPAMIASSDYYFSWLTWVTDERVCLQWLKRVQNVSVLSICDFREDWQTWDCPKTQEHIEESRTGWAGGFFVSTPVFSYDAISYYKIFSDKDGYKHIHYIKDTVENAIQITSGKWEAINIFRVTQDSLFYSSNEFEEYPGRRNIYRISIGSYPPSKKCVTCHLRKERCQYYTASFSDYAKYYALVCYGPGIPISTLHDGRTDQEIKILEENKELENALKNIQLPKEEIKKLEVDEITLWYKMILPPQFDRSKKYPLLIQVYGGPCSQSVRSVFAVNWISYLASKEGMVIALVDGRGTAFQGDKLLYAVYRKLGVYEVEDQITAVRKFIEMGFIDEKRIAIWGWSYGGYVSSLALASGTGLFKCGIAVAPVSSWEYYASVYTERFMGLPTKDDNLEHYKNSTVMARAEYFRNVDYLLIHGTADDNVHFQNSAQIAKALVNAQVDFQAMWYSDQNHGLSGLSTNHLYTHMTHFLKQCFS
human Fibroblast activation protein alpha (hFAP), sequence (Q12884 38-760): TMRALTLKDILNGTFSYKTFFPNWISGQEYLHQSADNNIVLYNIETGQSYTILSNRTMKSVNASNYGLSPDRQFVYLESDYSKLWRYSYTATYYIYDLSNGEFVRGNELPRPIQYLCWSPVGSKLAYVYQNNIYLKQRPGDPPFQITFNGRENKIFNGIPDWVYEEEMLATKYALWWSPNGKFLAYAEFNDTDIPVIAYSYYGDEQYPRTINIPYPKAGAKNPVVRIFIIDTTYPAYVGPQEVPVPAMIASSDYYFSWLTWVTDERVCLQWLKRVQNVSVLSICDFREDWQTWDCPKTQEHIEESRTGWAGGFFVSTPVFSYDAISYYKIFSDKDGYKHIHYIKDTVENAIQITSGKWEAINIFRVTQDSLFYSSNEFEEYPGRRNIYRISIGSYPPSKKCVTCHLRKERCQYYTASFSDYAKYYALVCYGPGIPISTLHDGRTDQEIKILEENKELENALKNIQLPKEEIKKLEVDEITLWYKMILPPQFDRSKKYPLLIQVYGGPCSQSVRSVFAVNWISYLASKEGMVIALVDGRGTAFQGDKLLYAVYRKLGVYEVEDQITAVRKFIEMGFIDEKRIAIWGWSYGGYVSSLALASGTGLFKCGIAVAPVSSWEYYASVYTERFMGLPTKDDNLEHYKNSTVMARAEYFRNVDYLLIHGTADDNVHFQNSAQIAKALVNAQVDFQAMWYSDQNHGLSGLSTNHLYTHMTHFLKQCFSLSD
FAP (Mus musculus (Mouse), UniProt P97321), sequence (P97321 24-761): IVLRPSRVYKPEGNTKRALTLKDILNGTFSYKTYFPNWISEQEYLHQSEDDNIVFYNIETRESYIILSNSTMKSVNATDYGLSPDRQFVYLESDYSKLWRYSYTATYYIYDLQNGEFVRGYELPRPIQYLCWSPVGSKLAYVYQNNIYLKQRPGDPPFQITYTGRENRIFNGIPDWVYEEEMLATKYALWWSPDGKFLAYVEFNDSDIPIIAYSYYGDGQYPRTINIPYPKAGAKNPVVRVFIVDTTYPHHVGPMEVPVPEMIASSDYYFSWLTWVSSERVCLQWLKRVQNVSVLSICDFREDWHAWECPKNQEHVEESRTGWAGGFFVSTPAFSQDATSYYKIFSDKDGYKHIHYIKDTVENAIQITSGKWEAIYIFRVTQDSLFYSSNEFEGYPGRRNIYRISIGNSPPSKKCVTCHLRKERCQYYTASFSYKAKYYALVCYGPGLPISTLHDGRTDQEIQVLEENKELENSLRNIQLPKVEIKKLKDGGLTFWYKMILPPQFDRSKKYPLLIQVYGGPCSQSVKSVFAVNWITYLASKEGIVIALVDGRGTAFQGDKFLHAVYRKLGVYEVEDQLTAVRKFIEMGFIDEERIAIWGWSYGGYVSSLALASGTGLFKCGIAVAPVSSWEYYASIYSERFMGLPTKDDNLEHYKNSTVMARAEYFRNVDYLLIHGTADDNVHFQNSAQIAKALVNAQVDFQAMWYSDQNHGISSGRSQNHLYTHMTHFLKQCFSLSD
FAP (Homo sapiens (Human), UniProt Q12884), sequence (Q12884 38-760): as the sequence (Q12884 38-760) above

hHep CLint [1] [μL/min/1E6] | hFAP Binding assay k(off) (hFAP (M39-A757)) [s⁻¹] | hFAP Binding assay k(on) (hFAP (M39-A757)) [M⁻¹ s⁻¹] | Kd (hFAP (M39-A757)) [nM] | Papp A→B (Caco-2 cell permeability) [×10⁻⁶ cm/s] | Papp B→A (Caco-2 cell permeability) [×10⁻⁶ cm/s] | efflux ratio (Caco-2 cell permeability) | rHep CLint [2] [μL/min/1E6] | IC50 [3] [nM] | microsomal CLint [4, 8] [µL/min/mg] | IC50 [5] [nM] | solubility (Kinetic solubility; [9]) [µM] | IC50 (FAP [6]) [nM] | IC50 (FAP [7]) [nM] | SMILES | Papp (Caco-2 cell permeability) [×10⁻⁶ cm/s] | microsomal CLint [4] [µL/min/mg] | solubility (Kinetic solubility) [µM]
<1 | 0.000099 | 1900000 | 0.074 | 0.15 | 4.4 | 29 | 2.2 | 1800 | 7.1 | 0.071 | 920 (≈ 463 µg/mL) | – | – | CS(=O)(=O)C[C@@H]1CN(c2ccc3nccc(C(=O)NCC(=O)N4CSC[C@H]4C#N)c3c2)CCO1 [Example 94, N-(2-((R)-4-Cyanothiazolidin-3-yl)-2-oxoethyl)-6-((S)-2-((methylsulfonyl)-methyl)morpholino)quinoline-4-carboxamide] | – | – | –
2.7 | 0.000054 | 1800000 | 0.03 | 2.8 | 33 | 12 | 7.6 | 880 | 21 | 0.053 | – | – | – | COC1(C)CCN(c2ccc3nccc(C(=O)NCC(=O)N4CSC[C@H]4C#N)c3c2)CC1 [Example 42, (R)—N-(2-(4-Cyanothiazolidin-3-yl)-2-oxoethyl)-6-(4-methoxy-4-methylpiperidin-1-yl)quinoline-4-carboxamide] | – | – | –
– | 0.000076 | 2400000 | – | – | – | – | – | 540 | – | – | – | 0.6 | – | Cc1nn(C2CCOCC2)c(C)c1-c1ccc2nccc(C(=O)NCC(=O)N3CSC[C@H]3C#N)c2c1 [Example 172, (R)—N-(2-(4-Cyanothiazolidin-3-yl)-2-oxoethyl)-6-(3,5-dimethyl-1-(tetrahydro-2H-pyran-4-yl)-1H-pyrazol-4-yl)quinoline-4-carboxamide] | – | – | –
– | – | – | – | – | – | – | – | – | – | – | – | 0.6 | – | Cc1cc(N2CCOCC2)cc2c(C(=O)NCC(=O)N3CSC[C@H]3C#N)ccnc12 [Example 9] | – | – | –
– | 0.00048 | 25000000 | – | – | – | – | – | 510 | – | – | – | 0.4 | – | CC1(F)CN(c2ccc3nccc(C(=O)NCC(=O)N4CSC[C@H]4C#N)c3c2)C1 [Example 24, (R)—N-(2-(4-Cyanothiazolidin-3-yl)-2-oxoethyl)-6-(3-fluoro-3-methyl-azetidin-1-yl)quinoline-4-carboxamide] | – | – | –
– | 0.00012 | 1400000 | – | – | – | – | – | 760 | – | – | – | 0.4 | – | N#C[C@@H]1CSCN1C(=O)CNC(=O)c1ccnc2ccc(-c3cnc4n3CCCC4)cc12 [Example 175, (R)—N-(2-(4-Cyanothiazolidin-3-yl)-2-oxoethyl)-6-(5,6,7,8-tetrahydroimidazo[1,2-a]pyridin-3-yl)quinoline-4-carboxamide] | – | – | –
– | 0.00026 | 3200000 | – | – | – | – | – | 84 | – | – | – | 0.2 | – | N#C[C@@H]1CSCN1C(=O)CNC(=O)c1ccnc2ccc(-c3ccn[nH]3)cc12 [Example 196, (R)—N-(2-(4-Cyanothiazolidin-3-yl)-2-oxoethyl)-6-(1H-pyrazol-5-yl)-quinoline-4-carboxamide] | – | – | –
– | 0.000058 | 100000 | 0.56 | 1.3 | 22 | 17 | 7.4 | 360 | 13 | 0.11 | 40 (≈ 16.7 µg/mL) | – | 0.29 | Cc1ccc(-c2ccc3nccc(C(=O)NCC(=O)N4CSC[C@H]4C#N)c3c2)cn1 [Example 177, (R)—N-(2-(4-Cyanothiazolidin-3-yl)-2-oxoethyl)-6-(6-methylpyridin-3-yl)-quinoline-4-carboxamide] | – | – | –

Second part, the compound before the results:

SMILES | hHep CLint [1] [μL/min/1E6] | hFAP Binding assay k(off) (hFAP (M39-A757)) [s⁻¹] | hFAP Binding assay k(on) (hFAP (M39-A757)) [M⁻¹ s⁻¹] | Kd (hFAP (M39-A757)) [nM] | Papp A→B (Caco-2 cell permeability) [×10⁻⁶ cm/s] | Papp B→A (Caco-2 cell permeability) [×10⁻⁶ cm/s] | efflux ratio (Caco-2 cell permeability) | rHep CLint [2] [μL/min/1E6] | IC50 [3] [nM] | microsomal CLint [4, 8] [µL/min/mg] | IC50 [5] [nM] | solubility (Kinetic solubility; [9]) [µM] | IC50 (FAP [6]) [nM] | IC50 (FAP [7]) [nM] | Papp (Caco-2 cell permeability) [×10⁻⁶ cm/s] | microsomal CLint [4] [µL/min/mg] | solubility (Kinetic solubility) [µM]
N#C[C@@H]1CSCN1C(=O)CNC(=O)c1ccnc2ccc(N3CCCCO3)cc12 [Example 1, (R)—N-(2-(4-Cyanothiazolidin-3-yl)-2-oxoethyl)-6-(1,2-oxazinan-2-yl)-quinoline-4-carboxamide] | <1 | 0.00014 | 730000 | 0.18 | 4.7 | 29 | 6.1 | 4.9 | 410 | 14 | 0.099 | > 1000 | – | – | – | – | –
N#C[C@@H]1CSCN1C(=O)CNC(=O)c1ccnc2ccc(N3CCC4(CC3)OCCO4)cc12 [Example 228, (R)—N-(2-(4-cyanothiazolidin-3-yl)-2-oxoethyl)-6-(1,4-dioxa-8-azaspiro[4.5]decan-8-yl)quinoline-4-carboxamide] | <1 | – | – | – | 25 | 27 | 0.9 | 9 | 1200 | – | 0.087 | – | – | – | 0.9 | < 3 | 879 (≈ 411 µg/mL)
C[C@@H]1OCCN(c2ccc3nccc(C(=O)NCC(=O)N4CSC[C@H]4C#N)c3c2)[C@H]1C [Example 82, N-(2-((R)-4-Cyanothiazolidin-3-yl)-2-oxoethyl)-6-((2S,3S)-2,3-dimethyl-morpholino)quinoline-4-carboxamide] | – | 0.000071 | 1400000 | – | – | – | – | – | 930 | – | – | – | 0.4 | – | – | – | –
CC1(C)CCN(c2ccc3nccc(C(=O)NCC(=O)N4CSC[C@H]4C#N)c3c2)C(=O)O1 [Example 112, (R)—N-(2-(4-Cyanothiazolidin-3-yl)-2-oxoethyl)-6-(6,6-dimethyl-2-oxo-1,3-oxazinan-3-yl)quinoline-4-carboxamide] | – | 0.00014 | 440000 | – | – | – | – | – | 3600 | – | – | – | 0.8 | – | – | – | –
N#C[C@@H]1CSCN1C(=O)CNC(=O)c1ccnc2ccc(-c3cnn(C4CCOCC4)c3)cc12 [Example 173, (R)—N-(2-(4-Cyanothiazolidin-3-yl)-2-oxoethyl)-6-(1-(tetrahydro-2H-pyran-4-yl)-1H-pyrazol-4-yl)quinoline-4-carboxamide] | – | 0.000054 | 110000 | – | – | – | – | – | 940 | – | – | – | 0.2 | – | – | – | –
